# Bridge positions count the residues as written; N and C are the ends. Square brackets hold non-standard residues; d marks the D form. Peptide text beside a SMILES is read from it. * marks the point of attachment. ξ: configuration not given here. Phe(4-COOH) = N[C@@H](Cc1ccc(C(=O)O)cc1)C(=O)O; Bip = N[C@@H](Cc1ccc(-c2ccccc2)cc1)C(=O)O; NH(CH2)14COOH = O=C(O)CCCCCCCCCCCCCCN*; Phe(3-Me) = Cc1cccc(C[C@H](N)C(=O)O)c1; Val(3-OH) = CC(C)(O)[C@H](N)C(=O)O; hArg = N=C(N)NCCCC[C@H](N)C(=O)O; 4Pal = N[C@@H](Cc1ccncc1)C(=O)O; Cha = N[C@@H](CC1CCCCC1)C(=O)O; Cit = NC(=O)NCCC[C@H](N)C(=O)O; Thr(3ξ) = CC(O)[C@H](N)C(=O)O; 12Ado = NCCCCCCCCCCCC(=O)O; hSer = N[C@@H](CCO)C(=O)O; Carboxymethyl = O=C(O)C*; Orn = NCCC[C@H](N)C(=O)O; Aun = NCCCCCCCCCCC(=O)O; Dab = NCC[C@H](N)C(=O)O; Nva = CCC[C@H](N)C(=O)O; Dap = NC[C@H](N)C(=O)O; AEEA = NCCOCCOCC(=O)O; Piv = CC(C)(C)C(=O)*
# Biological target: T1, PD-1/PD-L1 interaction (PE-labeled human PD-L1-Ig binding to Jurkat cell line over-expressing human PD-1) (Homo sapiens, UniProt Q15116)
# T1 construct: expressed in transfected cells; host or cells: Jurkat
# Assay: Jurkat-PD-1 Cell Binding High-Content Screening Assay (CBA)
# Format: cell-based
# Settings: Jurkat cell line over-expressing human PD-1; PE-labeled PD-L1-Ig 20 nM final; read-out: Jurkat hPD1-PDL1 IC50
# Procedure, shortened: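 Jurkat-hPD-1 cells, DMEM/10% FCS; cpd 2 h 37° C; PE-PD-L1-Ig 20 nM final, 1 h; 4% PFA fix + Hoechst 33342, 3× dPBS wash; high-content imaging read-out.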
# T1 sequence (Q15116 25-288): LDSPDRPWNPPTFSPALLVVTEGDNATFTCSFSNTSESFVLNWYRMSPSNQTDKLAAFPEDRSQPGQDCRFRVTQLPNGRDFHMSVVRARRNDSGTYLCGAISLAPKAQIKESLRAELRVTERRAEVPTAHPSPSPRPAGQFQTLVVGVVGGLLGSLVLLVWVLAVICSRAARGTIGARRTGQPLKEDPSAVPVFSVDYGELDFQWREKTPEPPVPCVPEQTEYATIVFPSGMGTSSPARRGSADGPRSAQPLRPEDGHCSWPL
row,SMILES,IC50
1,CC(C)C[C@H]1NC(=O)[C@H](CCCN)NC(=O)[C@H](C(C)C)NC(=O)[C@H](Cc2ccc(-c3ccccc3)cc2)NC(=O)[C@H](C(C)C)NC(=O)[C@H](Cc2c[nH]c3ccccc23)NC(=O)[C@H](CC(=O)O)NC(=O)[C@H](Cc2ccc(OCC(=O)O)cc2)NC(=O)[C@H](CN)NC(=O)CSC[C@@H](C(=O)N[C@@H](CCCN)C(=O)NCCCCCCCCCCC(=O)O)NC(=O)[C@H]([C@@H](C)O)NC(=O)[C@H](C(C)C)NC(=O)[C@H](CC2CCCCC2)NC(=O)[C@H](Cc2c[nH]cn2)NC1=O [Compound 1076] ({CH2CO}-[Dap]Y(Carboxymethyl)DWV[Bip]V[Orn][dL]H[Cha]VTC[Orn][Aun]-OH; thioether N-14),0.0441 µM
2,Cc1cccc(C[C@@H]2NC(=O)[C@H](CC(=O)O)NC(=O)[C@H](Cc3ccc(OCC(=O)O)cc3)NC(=O)[C@H](CCCCNC(=N)N)NC(=O)CSC[C@@H](C(=O)N[C@@H](CCCN)C(=O)N[C@@H](CO)C(=O)NCCCCCCCCCCCC(=O)O)NC(=O)[C@H](C(C)O)NC(=O)[C@H](C(C)C)NC(=O)[C@H](CC3CCCCC3)NC(=O)[C@H](CCN)NC(=O)[C@@H](CC(C)C)NC(=O)[C@H](CCCN)NC(=O)[C@H](CCCNC(=N)N)NC(=O)[C@H](Cc3ccc(-c4ccccc4)cc3)NC(=O)[C@H](C(C)C)NC2=O)c1 (stereo partly drawn) [Compound 3575] ({CH2CO}-[hArg]Y(Carboxymethyl)D[Phe(3-Me)]V[Bip]R[Orn][dL][Dab][Cha]V[Thr(3ξ)]C[Orn]S[12Ado]-OH; thioether N-14),0.0323 µM
3,Cc1cccc(C[C@@H]2NC(=O)[C@H](CC(=O)O)NC(=O)[C@H](Cc3ccc(OCC(=O)O)cc3)NC(=O)[C@H](CCN)NC(=O)CSC[C@@H](C(=O)N[C@@H](CCN)C(=O)NCCOCCOCC(=O)NCCCCCCCCCCC(=O)O)NC(=O)[C@H](CCCN)NC(=O)[C@H](C(C)C)NC(=O)[C@H](CC3CCCCC3)NC(=O)[C@H](CCN)NC(=O)[C@@H](CC(C)C)NC(=O)[C@H](CCCN)NC(=O)[C@H](CCCCNC(=O)C(C)(C)C)NC(=O)[C@H](Cc3ccc(-c4ccccc4)cc3)NC(=O)[C@H](CCCCNC(=O)C(C)(C)C)NC2=O)c1 [Compound 3609] ({CH2CO}-[Dab]Y(Carboxymethyl)D[Phe(3-Me)]K(Piv)[Bip]K(Piv)[Orn][dL][Dab][Cha]V[Orn]C[Dab][AEEA][Aun]-OH; thioether N-14),0.0188 µM
4,Cc1cccc(C[C@@H]2NC(=O)[C@H](CC(=O)O)NC(=O)[C@H](Cc3ccc(OCC(=O)O)cc3)NC(=O)[C@H](CCN)NC(=O)CSC[C@@H](C(=O)N[C@@H](CCN)C(=O)NCCCCCCCCCCC(=O)O)NC(=O)[C@H](CO)NC(=O)[C@H](C(C)(C)O)NC(=O)[C@H](CC3CCCCC3)NC(=O)[C@H](CCN)NC(=O)[C@@H](CC(C)C)NC(=O)[C@H](CCCN)NC(=O)[C@H](Cc3ccc(OCC(=O)O)cc3)NC(=O)[C@H](Cc3ccc(-c4ccccc4)cc3)NC(=O)[C@H](Cc3ccc(OCC(=O)O)cc3)NC2=O)c1 [Compound 3629] ({CH2CO}-[Dab]Y(Carboxymethyl)D[Phe(3-Me)]Y(Carboxymethyl)[Bip]Y(Carboxymethyl)[Orn][dL][Dab][Cha][Val(3-OH)]SC[Dab][Aun]-OH; thioether N-14),0.0084 µM

# Continued by falling IC50, values first:
row,IC50,SMILES
1,0.109 µM,CC(C)C[C@H]1NC(=O)[C@H](CCCN)NC(=O)[C@H](CCC(=O)O)NC(=O)[C@H](Cc2ccc(-c3ccccc3)cc2)NC(=O)[C@H](C(C)C)NC(=O)[C@H](Cc2c[nH]c3ccccc23)NC(=O)[C@H](CC(=O)O)NC(=O)[C@H](Cc2ccncc2)NC(=O)[C@H](CCCCNC(=N)N)NC(=O)CSC[C@@H](C(=O)N[C@@H](C)C(=O)NCCOCCOCC(=O)N[C@@H](CCCCN)C(=O)NCCCCCCCCCCCCCCC(=O)O)NC(=O)[C@H](CO)NC(=O)[C@H](C(C)C)NC(=O)[C@H](CC2CCCCC2)NC(=O)[C@H](CCN)NC1=O [Compound 3034] ({CH2CO}-[hArg][4Pal]DWV[Bip]E[Orn][dL][Dab][Cha]VSCA[AEEA]K-{NH(CH2)14COOH}; thioether N-14)
2,0.0192 µM,Cc1cccc(C[C@@H]2NC(=O)[C@H](CC(=O)O)NC(=O)[C@H](Cc3ccc(OCC(=O)O)cc3)NC(=O)[C@H](CCO)NC(=O)CSC[C@@H](C(=O)N[C@@H](CCO)C(=O)N[C@@H](CO)C(=O)NCCCCCCCCCCCC(=O)O)NC(=O)[C@H](C(C)O)NC(=O)[C@H](C(C)C)NC(=O)[C@H](CC3CCCCC3)NC(=O)[C@H](CCN)NC(=O)[C@@H](CC(C)C)NC(=O)[C@H](CCCN)NC(=O)[C@H](CCCNC(N)=O)NC(=O)[C@H](Cc3ccc(-c4ccccc4)cc3)NC(=O)[C@H](C(C)C)NC2=O)c1 (stereo partly drawn) [Compound 3566] ({CH2CO}-[hSer]Y(Carboxymethyl)D[Phe(3-Me)]V[Bip][Cit][Orn][dL][Dab][Cha]V[Thr(3ξ)]C[hSer]S[12Ado]-OH; thioether N-14)
3,0.0105 µM,Cc1cccc(C[C@@H]2NC(=O)[C@H](CC(=O)O)NC(=O)[C@H](Cc3ccc(OCC(=O)O)cc3)NC(=O)[C@H](Cc3ccncc3)NC(=O)CSC[C@@H](C(=O)N[C@@H](CCN)C(=O)NCCOCCOCC(=O)NCCCCCCCCCCC(=O)O)NC(=O)[C@H](CCC(=O)O)NC(=O)[C@H](C(C)(C)O)NC(=O)[C@H](CC3CCCCC3)NC(=O)[C@H](CCN)NC(=O)[C@@H](CC(C)C)NC(=O)[C@H](CCC(N)=O)NC(=O)[C@H](Cc3ccc(C(=O)O)cc3)NC(=O)[C@H](Cc3ccc(-c4ccccc4)cc3)NC(=O)[C@H](Cc3ccc(C(=O)O)cc3)NC2=O)c1 [Compound 3748] ({CH2CO}-[4Pal]Y(Carboxymethyl)D[Phe(3-Me)][Phe(4-COOH)][Bip][Phe(4-COOH)]Q[dL][Dab][Cha][Val(3-OH)]EC[Dab][AEEA][Aun]-OH; thioether N-14)
4,0.0053 µM,CC(C)C[C@H]1NC(=O)[C@H](CCCN)NC(=O)[C@H](C(C)C)NC(=O)[C@H](Cc2ccc(-c3ccccc3)cc2)NC(=O)[C@H](C(C)C)NC(=O)[C@H](Cc2c[nH]c3ccccc23)NC(=O)[C@H](CC(=O)O)NC(=O)[C@H](Cc2ccc(C(=O)O)cc2)NC(=O)[C@H](Cc2ccc(OCC(=O)O)cc2)NC(=O)CSC[C@@H](C(=O)NCCOCCOCC(=O)N[C@@H](CCN)C(=O)NCCCCCCCCCCC(=O)O)NC(=O)[C@H](CCCCN)NC(=O)[C@H](C(C)C)NC(=O)[C@H](CC2CCCCC2)NC(=O)[C@H](CCN)NC1=O [Compound 2539] ({CH2CO}-Y(Carboxymethyl)[Phe(4-COOH)]DWV[Bip]V[Orn][dL][Dab][Cha]VKC[AEEA][Dab][Aun]-OH; thioether N-14)
5,0.0027 µM,CCC[C@@H]1NC(=O)CSC[C@@H](C(=O)N[C@@H](CCN)C(=O)NCCOCCOCC(=O)NCCCCCCCCCCC(=O)O)NC(=O)[C@H](Cc2cnc[nH]2)NC(=O)[C@H](C(C)C)NC(=O)[C@H](CC2CCCCC2)NC(=O)[C@H](CCN)NC(=O)[C@@H](CC(C)C)NC(=O)[C@H](CCCN)NC(=O)[C@H](Cc2ccc(OCC(=O)O)cc2)NC(=O)[C@H](Cc2ccc(-c3ccccc3)cc2)NC(=O)[C@H](Cc2ccc(OCC(=O)O)cc2)NC(=O)[C@H](Cc2cccc(C)c2)NC(=O)[C@H](CC(=O)O)NC(=O)[C@H](Cc2ccc(OCC(=O)O)cc2)NC1=O [Compound 3803] ({CH2CO}-[Nva]Y(Carboxymethyl)D[Phe(3-Me)]Y(Carboxymethyl)[Bip]Y(Carboxymethyl)[Orn][dL][Dab][Cha]VHC[Dab][AEEA][Aun]-OH; thioether N-14)

# Source: patent publication US20260022142A1, “MACROCYCLIC IMMUNOMODULATORS” (Bristol-Myers Squibb Company, priority 2022, published 2026)
